Reference: patent publication US8815842B2 (priority 2006, dated 2014)
In brackets after ≈: the same amount, converted by molar mass. Read-outs that look alike come from different tables or passages of the source.

Columns and labels:
[1] = test system: foot-and-mouth disease virus (O/JPN/2000 strain); test: microbe, parasite or virus in culture; type: cell-based; conditions: in Sus scrofa, 72 h, read-out: plaque formation 50% inhibitory rate (IC50)
[2] = test system: foot-and-mouth disease virus serotype Asia 1; type: cell-based
[3] = test system: foot-and-mouth disease virus serotype A; type: cell-based
[4] = test system: foot-and-mouth disease virus serotype C; type: cell-based
Vero cells = test: cells; type: cell-based; conditions: Chlorocebus sabaeus, 96 h, read-out: 50% cell growth inhibitory concentration (IC50)
[5] = pig, in vivo, po, 100 mg/kg
[6] = Corriedale, sheep, in vivo, po, 100 mg/kg
[7] = black-haired Japanese cattle, bovine, in vivo, po, 100 mg/kg
[8] = test system: foot-and-mouth disease virus; conditions: pig, in vivo

For `NC(=O)c1nccnc1O` [T-1105, 3-oxo-3,4-dihydro-2-pyrazinecarboxamide], the IC50 [1] was 1.6 µg/mL (≈ 11.5 µM), the “25% or more inhibitory concentration” value [2] was 0.625 µg/mL and the “25% or more inhibitory concentration” value [3] was 0.313 µg/mL. For the same compound, the “25% or more inhibitory concentration” value [4] was 1.25 µg/mL, the IC50 (Vero cells) was at least 250 µg/mL and the “Plasma concentration 2 hrs after administration” value (“Plasma concentration 2 hrs” for short) [5] was 75000 ng/mL. For the same compound, the “Plasma concentration 8 hrs after administration” value (“Plasma concentration 8 hrs” for short) [5] was 36400 ng/mL, the “Plasma concentration 2 hrs” value [6] was 30900 ng/mL and the “Plasma concentration 8 hrs” value [6] was 10200 ng/mL. The “Plasma concentration 2 hrs” value [7] was 7860 ng/mL, the “Plasma concentration 8 hrs” value [7] was 173 ng/mL and the “change in appearance (lameness, dysstasia, blister formation in feet)” value [8] was “no change in their appearance”. For the same compound, the “plasma viral load, in words” value [8] was “remained at the detection limit or bellow”, the “viral load in the nasal swab, in words” value [8] was “scarcely increased” and the clinical sign ([8]; 400 mg/kg/day) was “−”. For the same compound, the plasma viral load ([8]; 400 mg/kg/day) was under 0.14 TCID50/μL, the “toxic finding during the administration period” value ([8]; 400 mg/kg/day) was “no toxic finding” and the “viral load in the nasal swab” value ([8]; 400 mg/kg/day) was <0.07 TCID50/μL of swab solution.
